From patent US5798361A, “5H-thiazolo[3,2-a]pyrimidin-5-one derivatives” (Ferrer Internacional, S.A., priority 1995, dated 1998)

What was measured:
[1] = tested on: apomorphine-induced climbing behaviour; test: Inhibition of apomorphine-induced climbing behaviour; assay type: in vivo, Male Swiss mice; settings: Mus musculus, 1 h; oral, mice, apomorphine 1 mg/kg s.c. at 60 min
Description: (§1) The inhibiton test of apomorphine-induced climbing behaviour and the inhibition test of DOI-induced head twitches and scratches are hereinafter described.
Inhibition of aoomorphine-induced climbing behaviour
Male Swiss mice weighing 22-24 g were used. One week prior to experiment, animals were kept in our facilities at a temperature of 20°-22° C. and 12/12 h light-dark cycle, and had free access to food and water. Two hours prior to experiment, the animals were placed in individual cages without access to food.
Animals were administered orally with test drug or 0.25% agar at time 0. After 60 minutes, apomorphine was subcutaneously injected at a dose of 1 mg/kg, and after further 70 minutes the animal's behaviour was assessed. Two additional assessments were performed at 10-min intervals. For assessment, each animal was placed on the bottom of a small upright box (11×7.5×4.5 cm). The walls of the box were made of translucent methacrylate except one of the lateral surfaces (7.5 cm wide) which was a 3-mm wire mesh. The position of the animal was scored for 2 minutes according to the following criteria: 0=four paws on the floor; 1=three paws on the floor; 2=two paws on the floor; 3=one paw on the floor; and 4=four paws holding the wire mesh. If an animal keeps several positions within the 2-min observation, the seconds elapsed in each position will be recorded. Finally, mean scoring was calculated.

[2] = Catalepsy by oral route in Sprague-Dawley rats; assay type: in vivo; settings: for ED50: rat, in vivo, oral, Sprague-Dawley rats, 50% of treated animals showed catalepsy; for R (Catalepsy/Climbing): ratio of ED50 values
[3] = molecular target: T1, D2 receptors (Rattus norvegicus, UniProt P61169); test: Specific binding to D2 receptors ([3H]spiperone, rat striatum membrane); settings: for IC50: [3H]spiperone 2 nM, rat striatum membrane, 20 min, 35° C., pH 7.4; for D2/5HT2 ratio: ratio of IC50 values, D2 over 5HT2
T1 construct: membrane corresponding to 20 mg of rat striatum; from tissue; host or cells: rat striatum membrane
Description: (§2) Specific binding to D2 and 5HT2 receptors was tested as follows:
D2 receptors: A 2-nM solution of radioactive spiperone ([^3 H]spiperone), which acts as a specific ligand, was incubated with the membrane corresponding to 20 mg of rat striatum for 20 min at 35° C. buffered at pH 7.4 with Tris.HCl. The non-specific binding was then determined by addition of a micromolar concentration of unlabelled spiperone. […] After the incubation was completed, the sample was filtered through a glass fiber filter and then washed three times with Tris.HCl buffer. The amount of receptor-bound radioactivity was retained on the membrane and determined by liquid scintillation counting.

[4] = molecular target: T2, 5HT2 receptors (Rattus norvegicus, UniProt P14842); test: Specific binding to 5HT2 receptors ([3H]ketanserin, rat cortex membrane); settings: [3H]ketanserin 0.5 nM, 30 min, 35° C., pH 7.4
T2 construct: membrane corresponding to 1 mg of rat cortex; from tissue; host or cells: rat cortex membrane
Description: as §2
5HT2 receptors: A 0.5 nM solution of radioactive ketanserin ([^3 H]ketanserin), which acts as a specific ligand, was incubated with the membrane corresponding to 1 mg of rat cortex for 30 min at 35° C. buffered at pH 7.4 with Tris.HCl. Non-specific binding was then determined by addition of 5 micromolar concentration of unlabelled mianserin. IC50 (inhibitory concentration 50%) was calculated from the inhibition rate of the specific binding obtained by addition of eleven different concentrations of the compounds to be tested. After the incubation was completed, the sample was filtered through a glass fiber filter and then washed three times with Tris.HCl buffer. The amount of receptor-bound radioactivity was retained on the membrane and determined by liquid scintillation counting.

[5] = molecular target: T3, 5HT2 receptors (Mus musculus, UniProt P35363); test: Inhibition of DOI-induced head twitches and scratches; assay type: in vivo, Male N.M.R.I. mice; settings: p.o., mice, DOI 3 mg/kg i.p. at 60 min
T3 construct: Male N.M.R.I. mice weighing 22-26 g were used; from tissue; host or cells: living male N.M.R.I. mice (whole animal, endogenous receptor)
Description: as §1
Inhibition of DOI-induced head twitches and scratches
Male N.M.R.I. mice weighing 22-26 g were used. After the animals were weighed, they were individually placed in transparent cages two hours prior to experiment. Test compound was given p.o. at time 0. The administration interval time between mice was 5 min. At time 60 min DOI at the dose of 3 mg/kg i.p. dissolved in saline was administered. The number of head twitches and scratches were assessed as well as the presence or absence of escape attempts.

T2 sequence (P14842 whole entry): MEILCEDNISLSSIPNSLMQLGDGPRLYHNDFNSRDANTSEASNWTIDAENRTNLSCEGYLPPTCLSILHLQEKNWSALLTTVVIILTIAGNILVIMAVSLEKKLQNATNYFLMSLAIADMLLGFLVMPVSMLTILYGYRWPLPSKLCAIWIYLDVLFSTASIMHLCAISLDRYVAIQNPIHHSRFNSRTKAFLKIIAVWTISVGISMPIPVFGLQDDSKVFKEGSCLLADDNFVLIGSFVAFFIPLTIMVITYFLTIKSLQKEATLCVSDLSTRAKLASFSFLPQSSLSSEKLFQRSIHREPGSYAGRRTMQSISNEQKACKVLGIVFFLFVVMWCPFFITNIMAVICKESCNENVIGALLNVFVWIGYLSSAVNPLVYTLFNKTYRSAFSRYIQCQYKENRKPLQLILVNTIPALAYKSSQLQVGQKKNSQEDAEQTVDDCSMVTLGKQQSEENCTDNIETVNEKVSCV
T1 sequence (P61169 whole entry): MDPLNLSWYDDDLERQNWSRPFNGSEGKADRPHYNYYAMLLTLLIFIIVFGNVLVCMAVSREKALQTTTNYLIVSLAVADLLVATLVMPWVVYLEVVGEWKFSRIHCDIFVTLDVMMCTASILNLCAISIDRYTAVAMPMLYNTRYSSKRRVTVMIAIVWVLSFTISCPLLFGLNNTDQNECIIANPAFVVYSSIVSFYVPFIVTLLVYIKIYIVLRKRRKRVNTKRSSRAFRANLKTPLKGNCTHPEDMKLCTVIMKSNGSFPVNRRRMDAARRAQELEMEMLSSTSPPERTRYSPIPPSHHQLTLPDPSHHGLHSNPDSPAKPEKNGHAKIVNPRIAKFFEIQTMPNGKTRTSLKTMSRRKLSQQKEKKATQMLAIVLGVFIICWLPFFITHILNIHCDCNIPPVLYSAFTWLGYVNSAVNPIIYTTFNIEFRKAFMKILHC
T3 sequence (P35363 whole entry): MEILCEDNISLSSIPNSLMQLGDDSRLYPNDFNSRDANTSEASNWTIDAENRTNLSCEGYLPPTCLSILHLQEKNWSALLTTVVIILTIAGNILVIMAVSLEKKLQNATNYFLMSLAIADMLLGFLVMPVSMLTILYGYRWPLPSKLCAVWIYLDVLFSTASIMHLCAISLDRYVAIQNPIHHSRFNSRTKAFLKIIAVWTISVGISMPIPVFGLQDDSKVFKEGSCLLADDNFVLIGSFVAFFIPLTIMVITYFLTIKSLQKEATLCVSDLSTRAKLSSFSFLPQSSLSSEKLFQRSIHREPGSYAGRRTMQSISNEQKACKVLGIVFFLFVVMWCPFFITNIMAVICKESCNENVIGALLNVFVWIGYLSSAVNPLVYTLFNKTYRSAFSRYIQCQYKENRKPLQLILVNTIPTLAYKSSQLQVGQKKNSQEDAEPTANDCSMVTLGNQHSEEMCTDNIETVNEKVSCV

Structure (SMILES): O=C(CCCN1CCC(O)(c2ccc(Cl)cc2)CC1)c1ccc(F)cc1 [Haloperidol, reference compound]
- ED50 [1]: 1.2 mg/kg
- ED50 [2]: 1.95 mg/kg

Structure (SMILES): Cc1nc2scc(-c3ccccc3Cl)n2c(=O)c1CCN1CCC(c2noc3cc(F)ccc23)CC1 [Example 24]
- IC50 [3]: 0.0292 µM
- D2/5HT2 ratio [3]: 1.0
- IC50 [4]: 0.0295 µM
- ED50 [1]: > 50 mg/kg
- ED50 DOI [5]: 1.50 mg/kg
- ED50 [2]: > 50 mg/kg

Structure (SMILES): Cc1nc2scc(-c3ccc(Cl)cc3)n2c(=O)c1CCN1CCC(c2noc3cc(F)ccc23)CC1 [Example 19]
- IC50 [3]: 0.0436 µM
- D2/5HT2 ratio [3]: 3.9
- IC50 [4]: 0.0111 µM
- ED50 [1]: 3.5 mg/kg
- ED50 DOI [5]: 0.82 mg/kg
- ED50 [2]: 9.5 mg/kg
- R (Catalepsy/Climbing) [2]: 2.7

Structure (SMILES): Cc1nc2scc(-c3ccc(Cl)c(Cl)c3)n2c(=O)c1CCN1CCC(c2noc3cc(F)ccc23)CC1 [Example 20]
- IC50 [3]: 0.0194 µM
- D2/5HT2 ratio [3]: 0.6
- IC50 [4]: 0.0352 µM

Structure (SMILES): Cc1cccc(-c2csc3nc(C)c(CCN4CCC(c5noc6cc(F)ccc56)CC4)c(=O)n23)c1 [Example 23]
- IC50 [3]: 0.0223 µM
- D2/5HT2 ratio [3]: 0.7
- IC50 [4]: 0.0321 µM

Structure (SMILES): Cc1nc2scc(-c3ccccc3)n2c(=O)c1CCN1CCC(c2noc3cc(F)ccc23)CC1 [Example 15, 6-[2-[4-(6-fluoro-1,2-benzisoxazol-3-yl)-1-piperidinyl]ethyl]-3-phenyl-7-methyl-5H-thiazolo[3,2-a]pyrimidin-5-one]
- IC50 [3]: 0.0441 µM
- D2/5HT2 ratio [3]: 11.2
- IC50 [4]: 0.00394 µM
- ED50 [1]: 14.7 mg/kg
- ED50 DOI [5]: 0.58 mg/kg
- ED50 [2]: 16 mg/kg
- R (Catalepsy/Climbing) [2]: 1.1

Structure (SMILES): COc1ccc(-c2csc3nc(C)c(CCN4CCC(C(=O)c5ccc(F)cc5)CC4)c(=O)n23)cc1 [Example 28]
- IC50 [3]: 0.0799 µM
- D2/5HT2 ratio [3]: 9.7
- IC50 [4]: 0.00826 µM
- ED50 [1]: 24.6 mg/kg
- ED50 DOI [5]: 0.60 mg/kg
- ED50 [2]: > 50 mg/kg
- R (Catalepsy/Climbing) [2]: > 2.0

Structure (SMILES): Cc1nc2scc(-c3cccc(Cl)c3)n2c(=O)c1CCN1CCC(c2noc3cc(F)ccc23)CC1 [Example 21]
- IC50 [3]: 0.0166 µM
- D2/5HT2 ratio [3]: 0.7
- IC50 [4]: 0.0245 µM

Structure (SMILES): Cc1nc2scc(-c3ccccc3)n2c(=O)c1CCN1CCC(C(=O)c2ccc(F)cc2)CC1 [Example 27]
- IC50 [3]: 0.174 µM
- D2/5HT2 ratio [3]: 13.9
- IC50 [4]: 0.0125 µM
- ED50 [1]: > 50 mg/kg
- ED50 DOI [5]: 1.20 mg/kg
- ED50 [2]: > 50 mg/kg

Structure (SMILES): Cc1nc2scc(-c3ccccc3F)n2c(=O)c1CCN1CCC(c2noc3cc(F)ccc23)CC1 [Example 26]
- IC50 [3]: 0.082 µM
- D2/5HT2 ratio [3]: 23.4
- IC50 [4]: 0.00351 µM
- ED50 [1]: > 50 mg/kg
- ED50 DOI [5]: 0.42 mg/kg
- ED50 [2]: > 50 mg/kg

Structure (SMILES): Cc1ccc(-c2csc3nc(C)c(CCN4CCC(c5noc6cc(F)ccc56)CC4)c(=O)n23)cc1 [Example 17, 6-[2-[4-(6-fluoro-1,2-benzisoxazol-3-yl)-1-piperidinyl]ethyl]-3-(4-methylphenyl)-7-methyl-5H-thiazolo[3,2-a]pyrimidin-5-one]
- IC50 [3]: 0.0364 µM
- D2/5HT2 ratio [3]: 2.4
- IC50 [4]: 0.0149 µM
- ED50 [1]: 3.9 mg/kg
- ED50 DOI [5]: 0.57 mg/kg
- ED50 [2]: 22.5 mg/kg
- R (Catalepsy/Climbing) [2]: 5.8

Structure (SMILES): Cc1nc2scc(-c3cccc(C(F)(F)F)c3)n2c(=O)c1CCN1CCC(c2noc3cc(F)ccc23)CC1 [Example 25]
- IC50 [3]: 0.0209 µM
- D2/5HT2 ratio [3]: 0.3
- IC50 [4]: 0.0833 µM

Structure (SMILES): Cc1nc2scc(-c3ccc4c(c3)OCO4)n2c(=O)c1CCN1CCC(c2noc3cc(F)ccc23)CC1 [Example 18]
- IC50 [3]: 0.0173 µM
- D2/5HT2 ratio [3]: 2.3
- IC50 [4]: 0.00763 µM
- ED50 [1]: 7.7 mg/kg
- ED50 DOI [5]: 0.80 mg/kg
- ED50 [2]: 20 mg/kg
- R (Catalepsy/Climbing) [2]: 2.6

Structure (SMILES): Cc1nc2scc(-c3ccc(F)cc3)n2c(=O)c1CCN1CCC(c2noc3cc(F)ccc23)CC1 [Example 14, 6-[2-[4-(6-fluoro-1,2-benzisoxazol-3-yl)-1-piperidinyl]ethyl]-3-(4-fluorophenyl)-7-methyl-5H-thiazolo[3,2-a]pyrimidin-5-one]
- IC50 [3]: 0.0197 µM
- D2/5HT2 ratio [3]: 6.2
- IC50 [4]: 0.00318 µM
- ED50 [1]: 2.9 mg/kg
- ED50 DOI [5]: 0.28 mg/kg
- ED50 [2]: 9.3 mg/kg
- R (Catalepsy/Climbing) [2]: 3.2

Structure (SMILES): COc1ccc(-c2csc3nc(C)c(CCN4CCC(c5noc6cc(F)ccc56)CC4)c(=O)n23)cc1 [Example 16, 6-[2-[4-(6-fluoro-1,2-benzisoxazol-3-yl)-1-piperidinyl]ethyl]-3-(4-methoxyphenyl)-7-methyl-5H-thiazolo[3,2-a]pyrimidin-5-one]
- IC50 [3]: 0.0421 µM
- D2/5HT2 ratio [3]: 5.1
- IC50 [4]: 0.00832 µM
- ED50 [1]: 7.4 mg/kg
- ED50 DOI [5]: 0.84 mg/kg
- ED50 [2]: 30 mg/kg
- R (Catalepsy/Climbing) [2]: 4.1

Structure (SMILES): COc1cccc(-c2csc3nc(C)c(CCN4CCC(c5noc6cc(F)ccc56)CC4)c(=O)n23)c1 [Example 22]
- IC50 [3]: 0.028 µM
- D2/5HT2 ratio [3]: 3.8
- IC50 [4]: 0.00746 µM
- ED50 [1]: 19 mg/kg
- ED50 DOI [5]: 1.10 mg/kg
- ED50 [2]: 40 mg/kg
- R (Catalepsy/Climbing) [2]: 2.1
